Several values for one entry are separate records, joined by “and”; a condition that tells them apart may be missing. Identical values can stand only once. Entries after “also recorded” stand apart in the source; their conditions may differ.
Key:
[1] = test system: HEK293T Tau RD P301S FRET biosensor (tau biosensor) cells; experiment: EV-mediated tau seed transfer (EMT) assay; assay type: cell-based; details: 20 μM
[2] = test system: HEK293T Tau RD P301S FRET biosensor (tau biosensor) cells; experiment: EV-mediated tau seed transfer (EMT) assay; assay type: cell-based; details: 20 μM; remark: listed apart in the source
Method: HEK293T Tau RD P301S FRET biosensor (tau biosensor) cells were grown in Dulbecco's Modified Eagle's medium (DMEM) with high glucose, 10% FBS, and 1% Penicillin-streptomycin at 37° C./5% CO2. The lead inhibitors were tested in functional tau propagation “D+R” (Donors plus Recipients) and EMT (EV-mediated transfer) assays using the tau biosensors. Briefly, tau aggregation in donor cells (D) was induced by transfection of tau biosensor cells with human AD brain derived synaptosomal extracts (35 μg of synaptosomal fraction for 5 million cells in one 10 cm dish); control cells were treated with corresponding amount of transfection reagent lipofectamine 2000. After 24 hr incubation, the cells were trypsinized and plated together with DID-labeled recipient cells (R) in a 1:1 ratio in 96-well plates (15,000 of each cell type per well) for D+R assay or 1.5 million of donor cells per well in 6-well plates for EMT assay. Tested compounds or a corresponding amount of DMSO (0.2%) was added to the cell culture medium, DMEM, which contained 10% of exosome-depleted FBS (ThermoFisher, A2720803). Four technical replicates were used for each experimental condition. The inhibitors were tested at 20 μM concentration. In 48 hours 50 μL of culture medium per well were collected for cell viability test (Cytotox 96 non-radioactive cytotoxicity assay, Promega Corp., Madison, Wis.). The cells in D+R assay were harvested at the 48 hr time point and fixed with 2% paraformaldehyde for flow cytometry analysis according to published protocol. Tau seed transfer from donor to recipient cells results in FRET signal generation in the DID-positive recipient cells, which was measured by flow cytometry. Integrated FRET density was calculated in the top 30% of DID-positive cell based on DID signal intensity.
For the EMT assay, cell culture medium from donor cells growing for 48 hours with the compounds at concentrations of 20 μM or a corresponding amount of DMSO (0.2%), was collected and EVs were purified using the ExoQuick-TC kit (SBI biosciences) according to the manufacturer's instructions. Naïve recipient cells were plated in 96 well plates at a density of 20,000 cells per well in exosome-free medium and transfected with donor cell-derived exosomes at 12 hrs. The recipient cells were harvested 60 hours after transfection and FRET signals were analyzed using flow cytometry.
An Attune NxT Flow Cytometer (Invitrogen) equipped with an autosampler and FRET-compatible laser lines and filter sets was used for FRET signal detection. […] Flow cytometry data was analyzed using FCS Express version 5 software (DeNovo Software California, USA). Integrated FRET density was calculated as a product of percentage FRET positive cells and median of fluorescent intensity of the FRET positive cells as previously established.

[3] = test system: Tau P301S (PS19 line) tauopathy mouse model; experiment: Rapid in vivo assay: IL1β-induced brain EV release; parameters: species or system mice
[4] = target: human serum albumin (HSA) (Homo sapiens, UniProt P02768); experiment: Binding to human serum albumin (HSA)
Chain of human serum albumin (HSA) (P02768 25-609): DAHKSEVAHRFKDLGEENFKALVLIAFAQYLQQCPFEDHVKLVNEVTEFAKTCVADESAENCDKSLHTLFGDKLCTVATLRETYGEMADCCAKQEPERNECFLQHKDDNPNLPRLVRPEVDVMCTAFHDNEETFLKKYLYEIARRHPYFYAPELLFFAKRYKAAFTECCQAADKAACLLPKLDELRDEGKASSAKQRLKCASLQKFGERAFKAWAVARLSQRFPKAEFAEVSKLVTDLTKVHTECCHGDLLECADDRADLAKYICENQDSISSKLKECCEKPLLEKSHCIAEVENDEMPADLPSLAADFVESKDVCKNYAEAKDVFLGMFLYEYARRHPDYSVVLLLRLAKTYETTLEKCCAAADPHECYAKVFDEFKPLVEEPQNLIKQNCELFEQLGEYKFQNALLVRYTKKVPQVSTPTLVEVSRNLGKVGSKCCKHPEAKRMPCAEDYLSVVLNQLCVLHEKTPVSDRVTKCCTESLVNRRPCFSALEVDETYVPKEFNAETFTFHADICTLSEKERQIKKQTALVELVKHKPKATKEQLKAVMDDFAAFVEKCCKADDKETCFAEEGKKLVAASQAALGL

[5] = target: T1, Human AChE (Homo sapiens, UniProt P22303); experiment: biochemical; details: read-out: AChE IC50
T1 construct: purchased Sigma
T1 sequence (P22303 32-614): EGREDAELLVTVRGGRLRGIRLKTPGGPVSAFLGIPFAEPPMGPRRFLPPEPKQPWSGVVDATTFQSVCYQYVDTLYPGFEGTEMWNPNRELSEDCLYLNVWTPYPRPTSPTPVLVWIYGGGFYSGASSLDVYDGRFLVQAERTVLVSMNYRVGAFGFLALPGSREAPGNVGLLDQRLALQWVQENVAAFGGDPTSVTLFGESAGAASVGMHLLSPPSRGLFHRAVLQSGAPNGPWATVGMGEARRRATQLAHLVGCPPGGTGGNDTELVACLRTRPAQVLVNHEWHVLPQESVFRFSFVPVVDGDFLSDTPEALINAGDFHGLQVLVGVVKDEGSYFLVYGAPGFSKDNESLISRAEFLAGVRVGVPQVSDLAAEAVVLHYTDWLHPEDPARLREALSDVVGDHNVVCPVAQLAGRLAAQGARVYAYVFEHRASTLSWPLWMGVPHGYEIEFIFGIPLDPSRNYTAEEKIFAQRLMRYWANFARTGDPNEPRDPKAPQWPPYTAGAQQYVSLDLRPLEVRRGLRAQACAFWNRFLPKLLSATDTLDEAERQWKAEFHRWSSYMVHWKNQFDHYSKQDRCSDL
Method: This acetylcholinesterase (AChE) assay is based on an Amplex Red assay kit (Thermo Fisher A12217). Human AChE (Sigma) was used. Briefly, 5 μL of compounds at the desired concentration were loaded into wells of a 384-well plate. Then, 5 μl of human AChE (30 mU/mL) was loaded into each well, followed by the addition of 10 μL of the working solution which contains 400 μM Amplex Red reagent, 2 U/mL HRP, 0.2 U/mL choline oxidase, and 100 μM acetylcholine. The reaction was monitored for 60 minutes and read at 530/590 nm. AChE IC50 was determined by plotting AChE activity as a percentage of DMSO control using GraphPad Prism software.

[6] = test system: HEK293T Tau RD P301S FRET biosensor (tau biosensor) cells; experiment: Donor plus Recipient (D+R) tau propagation assay; assay type: cell-based; details: 20 μM
Method: HEK293T Tau RD P301S FRET biosensor (tau biosensor) cells were grown in Dulbecco's Modified Eagle's medium (DMEM) with high glucose, 10% FBS, and 1% Penicillin-streptomycin at 37° C./5% CO2. The lead inhibitors were tested in functional tau propagation “D+R” (Donors plus Recipients) and EMT (EV-mediated transfer) assays using the tau biosensors. Briefly, tau aggregation in donor cells (D) was induced by transfection of tau biosensor cells with human AD brain derived synaptosomal extracts (35 μg of synaptosomal fraction for 5 million cells in one 10 cm dish); control cells were treated with corresponding amount of transfection reagent lipofectamine 2000. After 24 hr incubation, the cells were trypsinized and plated together with DID-labeled recipient cells (R) in a 1:1 ratio in 96-well plates (15,000 of each cell type per well) for D+R assay or 1.5 million of donor cells per well in 6-well plates for EMT assay. Tested compounds or a corresponding amount of DMSO (0.2%) was added to the cell culture medium, DMEM, which contained 10% of exosome-depleted FBS (ThermoFisher, A2720803). Four technical replicates were used for each experimental condition. The inhibitors were tested at 20 μM concentration. […] Tau seed transfer from donor to recipient cells results in FRET signal generation in the DID-positive recipient cells, which was measured by flow cytometry. Integrated FRET density was calculated in the top 30% of DID-positive cell based on DID signal intensity.
An Attune NxT Flow Cytometer (Invitrogen) equipped with an autosampler and FRET-compatible laser lines and filter sets was used for FRET signal detection. The FRET (CFP/YFP) signal was excited by a 405 nm laser for CFP excitation and detected in the YFP image detection channel. Flow cytometry data was analyzed using FCS Express version 5 software (DeNovo Software California, USA). Integrated FRET density was calculated as a product of percentage FRET positive cells and median of fluorescent intensity of the FRET positive cells as previously established.

[7] = Brain pharmacokinetic analysis after SQ dosing
Method: Pharmacokinetic (PK) analysis on the leads 8 and 11 to determine brain permeability using wild type mice was performed. The compounds were subcutaneously (SQ) injected at a dose of 20 mg per kg of body weight (mpk). Brain and plasma samples were collected 1, 2, and 4 hours after dosing.

[8] = Parallel artificial membrane permeability (IAM column) prediction of CNS permeability; assay type: in vitro ADME; details: PAMPA, 2 mM
Method: To predict the potential for brain permeability, a Regis Technologies analytical column connected to an Agilent HPLC system (Infinity 1260 quaternary pump and multiple wavelength detector; 1200 autosampler) was used. An IAM.PC.DD column was (4.6 mm i.d.×10 cm, particle size 5 μm; pore size 300 Å) conditioned with 20 column volumes of mobile phase or until a stable line was achieved. A mobile phase with a consistent flow rate of 1 mL/min was used comprising 100 mM Na2PO4 (solvent A) and acetonitrile (solvent B); compounds were eluted using a gradient (min/% B: 0/30, 10/60, 11/30, 15/30). Detector settings were 220, 250 and 280 nm and acquisition time was 15 min. The autosampler injected 10 μL of compound at 2 mM final, diluted from 10 mM in DMSO in 70:30 (water:acetonitrile). After elution, compound retention and void volume times were obtained from the chromatogram. The IAM capacity factor: (KIAM) was calculated using the equation: […]
where tr is the retention time of a compound and t0 is the void volume time of the column. To predict CNS permeability, we used the correlation described by the formula below.

[9] = test system: donor cells (tau biosensor cells); experiment: Donor cell number and viability in EMT assay; assay type: cell-based; details: 48 hours after sub-culture, 20 μM, vs DMSO
Method: HEK293T Tau RD P301S FRET biosensor (tau biosensor) cells were grown in Dulbecco's Modified Eagle's medium (DMEM) with high glucose, 10% FBS, and 1% Penicillin-streptomycin at 37° C./5% CO2. The lead inhibitors were tested in functional tau propagation “D+R” (Donors plus Recipients) and EMT (EV-mediated transfer) assays using the tau biosensors. Briefly, tau aggregation in donor cells (D) was induced by transfection of tau biosensor cells with human AD brain derived synaptosomal extracts (35 μg of synaptosomal fraction for 5 million cells in one 10 cm dish); control cells were treated with corresponding amount of transfection reagent lipofectamine 2000. After 24 hr incubation, the cells were trypsinized and plated together with DID-labeled recipient cells (R) in a 1:1 ratio in 96-well plates (15,000 of each cell type per well) for D+R assay or 1.5 million of donor cells per well in 6-well plates for EMT assay. Tested compounds or a corresponding amount of DMSO (0.2%) was added to the cell culture medium, DMEM, which contained 10% of exosome-depleted FBS (ThermoFisher, A2720803). […] Tau seed transfer from donor to recipient cells results in FRET signal generation in the DID-positive recipient cells, which was measured by flow cytometry. Integrated FRET density was calculated in the top 30% of DID-positive cell based on DID signal intensity.

CN1c2ccc(OC(=O)Nc3cccnc3)cc2[C@]2(C)CCO[C@H]12 [Compound 11]
EV size distribution of donor-derived EVs (TRPS) [1]: did not affect | concentrations of exosomal-type small EVs from donor cells [1]: decreased | levels of exosomal markers CD63, CD81, and syntenin-1 in donor EVs ([1]; vs DMSO control): reduced | decrease of FRET fluorescence density from DMSO-control, EMT assay [2]: 41.3% | tau seed transfer from donor to recipient cells, EMT assay ([2]; donor cells 48 hrs): suppress tau propagation; also recorded: significantly suppresses | IL1β-induced tau release by exosomes ([3]; 20 mg/kg SQ): significantly reduced | difference in CD11b levels (microglia-derived exosomes) vs IL1β group ([3]; 20 mg/kg SQ): not significant | exosome-associated BIN1 upon IL1β stimulation ([3]; 20 mg/kg SQ): lower | level of astrocyte-derived exosomes (GLAST) ([3]; 20 mg/kg SQ, vs IL1β group): significantly reduced | exosomal marker CD63 in exosome-enriched F2 fractions ([3]; 20 mg/kg SQ, vs IL1β only group): significant reduction | IL1β-induced brain EV / exosomal release (small EV concentration, TRPS) ([3]; mouse, in vivo, 20 mg/kg): diminished IL1β-induced brain EV release; also recorded: suppressed IL1β-induced exosomal release to the control level | degree of binding to human serum albumin (HSA) [4]: low degree of binding | fraction unbound ([4]; human, human serum albumin): 0.31 | IC50 [5]: 1.7 µM | decrease of FRET fluorescence density from DMSO-control, D+R assay [6]: 19.5% | tau seed transfer from donor to recipient cells, D+R assay ([6]; 48 hrs): suppress tau propagation; also recorded: significantly suppresses | brain penetration (compound levels in brain tissue, LC-MS/MS) ([7]; mice, 20 mg/kg SQ): penetrated the brain | concentration at 1 h ([7]; mouse, in vivo, 20 mg/kg): 262 ng/g and ~800 nM | time of peak brain levels after SQ dosing ([7]; wild type mice, 20 mg/kg SQ): around one | CNS perm (PAMPA) [8]: 1.8 | donor cell numbers or survival [9]: didn't affect

From patent US20230113944A1, “COMPOSITIONS AND METHODS FOR THE TREATMENT OF NEURODEGENERATIVE DISEASES” (priority 2020, published 2023)
